The values below are quoted from earlier work in patent US20080089844A1 (priority 2002, published 2008).

In the data set the target is F425G Shaker mutation (Drosophila melanogaster, UniProt P08510, F425G). The settings on record: cited from earlier work.
Sequence of F425G Shaker mutation (P08510 whole entry F425G, looked up): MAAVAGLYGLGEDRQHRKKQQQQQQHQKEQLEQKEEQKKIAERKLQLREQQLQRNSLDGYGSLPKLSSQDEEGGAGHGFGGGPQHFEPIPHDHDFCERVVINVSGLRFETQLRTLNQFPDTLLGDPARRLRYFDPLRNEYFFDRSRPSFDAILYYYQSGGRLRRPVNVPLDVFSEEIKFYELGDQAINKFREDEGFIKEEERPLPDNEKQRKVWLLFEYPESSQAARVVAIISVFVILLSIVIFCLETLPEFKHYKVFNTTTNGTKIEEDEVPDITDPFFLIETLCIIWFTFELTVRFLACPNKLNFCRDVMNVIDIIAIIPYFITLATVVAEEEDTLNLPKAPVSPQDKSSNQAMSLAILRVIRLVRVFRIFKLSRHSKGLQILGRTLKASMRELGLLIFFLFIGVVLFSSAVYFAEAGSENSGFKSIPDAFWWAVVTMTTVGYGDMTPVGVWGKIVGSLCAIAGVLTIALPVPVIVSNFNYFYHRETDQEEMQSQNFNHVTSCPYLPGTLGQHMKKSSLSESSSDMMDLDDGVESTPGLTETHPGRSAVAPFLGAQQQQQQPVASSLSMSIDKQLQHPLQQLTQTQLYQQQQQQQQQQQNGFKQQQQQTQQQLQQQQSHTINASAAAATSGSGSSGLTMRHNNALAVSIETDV

Take charybdotoxin [reference compound]: the “effect of F425G Shaker mutation on charybdotoxin affinity” value is “increases charybdotoxin affinity by three orders of magnitude”.
